Source: US20240285554A1, “POLYVINYL ALCOHOL COMPOSITIONS AND METHODS OF MAKING AND USING THEM” (Emanate Biomedical, Inc., priority 2023, published 2024)

Assays:
oral pathogenic bacteria = conditions: cited from earlier work
C. albicans ATCC 10231 = assay: Antimicrobial efficacy testing (modified AATCC 100 test); type: cell-based, Candida albicans; conditions: contact time 30 min, study NG17964
Description: (§1) The CHG concentration of 0.05% w/w was the lowest dose showing strong efficacy against both bacteria and fungus and was therefore selected as the suitable preservative concentration.

P. aeruginosa ATCC 9027 = assay: as above; type: cell-based, Pseudomonas aeruginosa; conditions: for Log10 Reduction Compared to Control / Percent Reduction Compared to Control / Average CFU/carrier: P. aeruginosa ATCC 9027, study NG17598-A1; for Average CFU/carrier: limit of detection
Description: as §1

[1] = test system: gram positive bacteria and gram negative bacteria; assay: Zone of Inhibition (ZOI) testing; type: cell-based; conditions: composition with 0.005%, 0.025%, 0.05%, 0.1%, and 0.15% w/w of CHG
Description: as §1

bacteria and fungus = assay: Antimicrobial efficacy, choice of preservative concentration; type: cell-based; conditions: selected as the suitable preservative concentration
Description: as §1

C. tropicalis ATCC 750 [2] = assay: Antimicrobial efficacy testing (modified AATCC 100 test); type: cell-based, Candida tropicalis; conditions: for Average CFU/carrier / Log10 Reduction Compared to Control / Percent Reduction Compared to Control: C. tropicalis ATCC 750, contact time 30 min, study NG17964; for efficacy: tested against Candida albicans and Candida tropicalis
C. tropicalis ATCC 750 [3] = assay: as above; type: cell-based, Candida tropicalis
Description: as §1

S. aureus ATCC 6538 = assay: as above; type: cell-based, Staphylococcus aureus; conditions: for Log10 Reduction Compared to Control / Percent Reduction Compared to Control / Average CFU/carrier: S. aureus ATCC 6538, study NG17598-A1; for Average CFU/carrier: limit of detection
Description: as §1

[4] = CHG Conc 0.005 % w/w, contact time 30 min
[5] = CHG Conc 0.1 % w/w, contact time 60 min
[6] = CHG Conc 0.1 % w/w, contact time 24 hrs
[7] = C. tropicalis ATCC 750, CHG Conc 0.05 % w/w, contact time 30 min, study NG17964

SMILES: [H]/N=C(\N/C(=N/[H])NCCCCCCNC(=N)NC(=N)Nc1ccc(Cl)cc1)Nc1ccc(Cl)cc1 [Chlorhexidine, chlorhexidine]
- MIC (oral pathogenic bacteria; against oral pathogenic bacteria): 0.0125 % w/v
- MBC (oral pathogenic bacteria; at 10 minutes): 0.5 % w/v

SMILES: N=C(NCCCCCCNC(=N)NC(=N)Nc1ccc(Cl)cc1)NC(=N)Nc1ccc(Cl)cc1.O=C(O)[C@H](O)[C@@H](O)[C@H](O)[C@H](O)CO.O=C(O)[C@H](O)[C@@H](O)[C@H](O)[C@H](O)CO [CHG]
- Average CFU/carrier (C. albicans ATCC 10231; CHG Conc 0.005 % w/w): 1.00E+05 CFU/carrier
- Log10 Reduction Compared to Control (C. albicans ATCC 10231; CHG Conc 0.005 % w/w): 0.25
- Percent Reduction Compared to Control (C. albicans ATCC 10231; CHG Conc 0.005 % w/w): 43.52%
- Average CFU/carrier (C. albicans ATCC 10231; CHG Conc 0.05 % w/w): 2.48E+02 CFU/carrier
- Log10 Reduction Compared to Control (C. albicans ATCC 10231; CHG Conc 0.05 % w/w): 2.86
- Percent Reduction Compared to Control (C. albicans ATCC 10231; CHG Conc 0.05 % w/w): 99.86%
- Average CFU/carrier (C. albicans ATCC 10231; CHG Conc 0.1 % w/w): 7.50E+00 CFU/carrier
- Log10 Reduction Compared to Control (C. albicans ATCC 10231; CHG Conc 0.1 % w/w): 4.37
- Percent Reduction Compared to Control (C. albicans ATCC 10231; CHG Conc 0.1 % w/w): 99.996%
- Log10 Reduction Compared to Control (P. aeruginosa ATCC 9027; [4]): >4.43
- Percent Reduction Compared to Control (P. aeruginosa ATCC 9027; [4]): >99.996%
- Average CFU/carrier (P. aeruginosa ATCC 9027; [4]): <5.00E+00^1 CFU/carrier
- Log10 Reduction Compared to Control (P. aeruginosa ATCC 9027; [5]): >4.53
- Percent Reduction Compared to Control (P. aeruginosa ATCC 9027; [5]): >99.996%
- Average CFU/carrier (P. aeruginosa ATCC 9027; [5]): <5.00E+00^1 CFU/carrier
- Log10 Reduction Compared to Control (P. aeruginosa ATCC 9027; [6]): >4.70
- Percent Reduction Compared to Control (P. aeruginosa ATCC 9027; [6]): >99.998%
- Average CFU/carrier (P. aeruginosa ATCC 9027; [6]): <5.00E+00^1 CFU/carrier
- reduction of the concentration of microorganisms (P. aeruginosa ATCC 9027; Pseudomonas aeruginosa, CHG 0.05% w/w, after 30 min contact time): more than 99.99%
- reduction of the concentration of the microorganisms (P. aeruginosa ATCC 9027; Pseudomonas aeruginosa, CHG 0.1% w/w, after 60 min and 24 hour contact time): more than 99.99%
- effect in Zone of Inhibition (ZOI) testing [1]: showed inhibitory effects
- lowest dose showing strong efficacy against both bacteria and fungus (bacteria and fungus): 0.05 % w/w
- Average CFU/carrier (C. tropicalis ATCC 750 [2]; CHG Conc 0.005 % w/w): 2.70E+04 CFU/carrier
- Log10 Reduction Compared to Control (C. tropicalis ATCC 750 [2]; CHG Conc 0.005 % w/w): 0.73
- Percent Reduction Compared to Control (C. tropicalis ATCC 750 [2]; CHG Conc 0.005 % w/w): 81.38%
- Log10 Reduction Compared to Control (C. tropicalis ATCC 750 [2]; CHG Conc 0.1 % w/w): >4.46
- Percent Reduction Compared to Control (C. tropicalis ATCC 750 [2]; CHG Conc 0.1 % w/w): >99.997%
- Average CFU/carrier (C. tropicalis ATCC 750 [2]; CHG Conc 0.1 % w/w, limit of detection): <5.00E+00^1 CFU/carrier
- efficacy (C. tropicalis ATCC 750 [2]; CHG 0.005% w/w): 81.38%
- efficacy (C. tropicalis ATCC 750 [2]; CHG 0.1% w/w): 99.997%
- Log10 Reduction Compared to Control (C. tropicalis ATCC 750 [3]; [7]): >4.46
- Percent Reduction Compared to Control (C. tropicalis ATCC 750 [3]; [7]): >99.997%
- Average CFU/carrier (C. tropicalis ATCC 750 [3]; C. tropicalis ATCC 750, CHG Conc 0.05 % w/w, contact time 30 min, study NG17964, limit of detection): <5.00E+00^1 CFU/carrier
- efficacy (C. tropicalis ATCC 750 [3]; tested against Candida albicans and Candida tropicalis, CHG 0.05% w/w): 99.997%
- Log10 Reduction Compared to Control (S. aureus ATCC 6538; [4]): >4.40
- Percent Reduction Compared to Control (S. aureus ATCC 6538; [4]): >99.996%
- Average CFU/carrier (S. aureus ATCC 6538; [4]): <5.00E+00^1 CFU/carrier
- Log10 Reduction Compared to Control (S. aureus ATCC 6538; [5]): >4.57
- Percent Reduction Compared to Control (S. aureus ATCC 6538; [5]): >99.997%
- Average CFU/carrier (S. aureus ATCC 6538; [5]): <5.00E+00^1 CFU/carrier
- Log10 Reduction Compared to Control (S. aureus ATCC 6538; [6]): >4.58
- Percent Reduction Compared to Control (S. aureus ATCC 6538; [6]): >99.997%
- Average CFU/carrier (S. aureus ATCC 6538; [6]): <5.00E+00^1 CFU/carrier
- reduction of the concentration of microorganisms (S. aureus ATCC 6538; Staphylococcus aureus, CHG 0.05% w/w, after 30 min contact time): more than 99.99%
- reduction of the concentration of the microorganisms (S. aureus ATCC 6538; Staphylococcus aureus, CHG 0.1% w/w, after 60 min and 24 hour contact time): more than 99.99%
